Laboratory results as given in patent US12419305B2, “Antimicrobial compositions” (Firmenich SA, priority 2018, dated 2025).

Columns and labels:
[1] = system: S. haemolyticus 114126; assay: BCT test (bacterial contact time), 120 s, log reduction / effect fraction; CI by Compusyn; format: cell-based; settings: Staphylococcus haemolyticus, 114126, 2 min
In short: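 S. haemolyticus 114126 (skin isolate), grown to OD600 1-2 in BHI-TW80 and resuspended at 1-5×10^8 CFU/mL, was mixed 1:1 with ethanolic perfume compositions or ethanol alone for 45, 60 or 120 s. Viable counts came from serial-dilution regrowth (37 °C, turbidity OD600), giving log reduction versus ethanol control; CI was computed from concentration–effect fraction pairs.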

[2] = system: E. coli ATCC 10536; assay: BCT test (bacterial contact time), 45 s, log reduction / effect fraction; CI by Compusyn; format: cell-based, Escherichia coli; settings: Escherichia coli, ATCC10536, 45 s; for log reduction at […] strength: dose […] w/v
In short: (§1)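 Combination index comes from dose and effect fraction of each blend and its single components, with values under 0.9 taken as synergistic and above 1.0 as antagonistic. Effect reflects log reduction in viable count after short contact of ~1×10^8 bacteria/mL with ethanolic test solutions.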

[3] = system: S. aureus ATCC 6538; assay: BCT test (bacterial contact time), 60 s, log reduction / effect fraction; CI by Compusyn; format: cell-based, Staphylococcus aureus; settings: Staphylococcus aureus, ATCC6538, 1 min, in 25% EtOH
In short: as §1

[4] = system: Pseudomonas aeruginosa ATCC 15442; assay: as above; format: cell-based; settings: Pseudomonas aeruginosa, ATCC15442, 1 min, BCT 60 s, in 25% EtOH
In short: as §1

[5] = system: Salmonella enterica ATCC 10708; assay: as above; format: cell-based; settings: Salmonella enterica, ATCC10708, 1 min
In short: as §1

Question: Which log reduction at 0.175 % strength [1] does the source give for `CC(C=O)Cc1ccc2c(c1)OCO2` (stereo not drawn) [Heliopropanal, 3-(1,3-Benzodioxol-5-yl)-2-methylpropanal] here?
Answer: 0.1

Question: What about the log reduction at 0.25 % strength [1] of the same compound?
Answer: 0.3

Question: And the log reduction at 0.3 % strength [1]?
Answer: 1.5

Question: And the log reduction at 0.4 % strength [1]?
Answer: 3.2

Question: What about the log reduction at 0.45 % strength [1] of the same compound?
Answer: 5.2

Question: And the log reduction at 0.1 % strength ([2]; dose 0.100 % w/v, 45 s, in 20% EtOH)?
Answer: 1

Question: And the log reduction at 0.1 % strength ([2]; dose 0.1% w/v, contact 45 s, 20% EtOH)?
Answer: 0.5

Question: And the log reduction at 0.12 % strength ([2]; dose 0.120 % w/v, 45 s, in 20% EtOH)?
Answer: 2.1

Question: And the log reduction at 0.12 % strength ([2]; dose 0.12% w/v, contact 45 s, 20% EtOH)?
Answer: 1.1

Question: And the log reduction at 0.14 % strength ([2]; dose 0.140 % w/v, 45 s, in 20% EtOH)?
Answer: 4.3

Question: What about the log reduction at 0.14 % strength ([2]; dose 0.14% w/v, contact 45 s, 20% EtOH) of the same compound?
Answer: 3.1

Question: And the log reduction at 0.16 % strength ([2]; dose 0.160 % w/v, 45 s, in 20% EtOH)?
Answer: 7.3

Question: And the log reduction at 0.16 % strength ([2]; dose 0.16% w/v, contact 45 s, 20% EtOH)?
Answer: 7

Question: What about the log reduction at […] strength ([2]; 45 s, in 20% EtOH) of the same compound?
Answer: 7.3

Question: What about the log reduction at […] strength ([2]; contact 45 s, 20% EtOH) of the same compound?
Answer: 7.4

Question: And the log reduction at 0.15 % strength ([3]; Dose 0.15 % w/v, BCT 60 s)?
Answer: 0.4

Question: What about the log reduction at 0.175 % strength ([3]; Dose 0.175 % w/v, BCT 60 s) of the same compound?
Answer: 0.4

Question: And the log reduction at 0.2 % strength ([3]; Dose 0.200 % w/v, BCT 60 s)?
Answer: 1.3

Question: And the log reduction at 0.225 % strength ([3]; Dose 0.225 % w/v, BCT 60 s)?
Answer: 3.5

Question: What about the log reduction at 0.25 % strength ([3]; Dose 0.25 % w/v, BCT 60 s) of the same compound?
Answer: 7.3

Question: And the log reduction at 0.15 % strength ([3]; dose 0.150 % w/v, 60 s)?
Answer: 0.4

Question: And the log reduction at 0.2 % strength ([3]; dose 0.200 % w/v, 60 s)?
Answer: 1.2

Question: What about the log reduction at 0.225 % strength ([3]; dose 0.225 % w/v, 60 s) of the same compound?
Answer: 4.2

Question: And the log reduction at 0.25 % strength ([3]; dose 0.250 % w/v, 60 s)?
Answer: 7

Question: What about the log reduction at 0.3 % strength ([3]; dose 0.300 % w/v, 60 s) of the same compound?
Answer: 7.3

Question: And the log reduction at 0.175 % strength ([4]; Dose 0.175 % w/v)?
Answer: 4.8

Question: What about the log reduction at 0.2 % strength ([4]; Dose 0.2 % w/v) of the same compound?
Answer: 7.2

Question: What about the log reduction at 0.25 % strength ([4]; Dose 0.25 % w/v) of the same compound?
Answer: 7.4

Question: What about the log reduction at 0.05 % strength [5] of the same compound?
Answer: 0

Question: And the log reduction at 0.1 % strength [5]?
Answer: 0.8

Question: And the log reduction at 0.12 % strength [5]?
Answer: 2.9

Question: What about the log reduction at 0.13 % strength [5] of the same compound?
Answer: 3.9

Question: And the log reduction at 0.14 % strength [5]?
Answer: 5.5
